Reference: patent US11814648B2, “Functional oligodendrocytes derived from pluripotent stem cells and methods of making and using the same” (New York Stem Cell Foundation, Inc., priority 2014, dated 2023)

Legend:
[1] = tested on: OLIG2-GFP knock-in hESC reporter line; experiment: Flow cytometric quantification of OLIG2-GFP expression under RA/SHH/SAG conditions; assay type: cell-based, human
Procedure: FIGS. 2A-2D show the requirement for RA and SHH to derive OLIG2^+ progenitor cells. […] RA at a concentration of 100 nM from day 0 results in the highest yield of GFP^+ cells. […] Negative: hESC line RUES1. […] Error bars are SEM (N=3). […] Only GFP^+ cells form spheres, providing enrichment to the GFP^+ population.
We used an OLIG2-GFP knock-in hESC reporter line (Liu et al., 2011) to track OLIG2^+ progenitors by live fluorescent imaging. First, we induced PAX6^+ cells using dual inhibition of SMAD signaling in adherent cultures. Chambers, S. M. et al., Nat Biotechnol. 27:275-80 (2009). Next, to mimic the embryonic spinal cord environment, we applied different concentrations of RA and/or SHH at various times and quantified OLIG2-GFP expression through flow cytometry (FIG. 2A).
At day 12, cells were detached and placed into low-attachment plates to promote their aggregation into spheres. The minimum number of cells required to form a sphere was at least 100 cells, and we noted that the majority of cells in the spheres were GFP^+. To investigate this further, we sorted day 12 cultures for GFP, and observed that only the GFP^+ cells formed aggregates (FIG. 2C).
At the day of differentiation induction (day 0), medium was switched to Neural Induction Medium, which is mTeSR Custom Medium (Stemcell Technologies) containing the small molecules SB431542 10 μM (Stemgent) and LDN193189 250 nM (Stemgent), as well as 100 nM all-trans-RA (Sigma-Aldrich; St. Louis, Mo.). mTeSR Custom Medium has the same composition as the commercially available mTeSR-1 medium but without five factors that sustain pluripotency, namely lithium chloride, GABA, pipecolic acid, bFGF, and TGFβ1 (Stemcell Technologies). […]
Cells were enzymatically harvested by ACCUTASE® treatment for 25 min at 37° C. to obtain a single cell suspension. Cells were then re-suspended in 100 μl of their respective medium containing the appropriate amount of either primary antibody or fluorescence-conjugated antibodies and were incubated on ice for 30 minutes shielded from light. […] Flow cytometry data were analyzed using BD FACSDiva™ software.

O4^+ cells = experiment: FACS-analysis for O4+ cells at day 75 of differentiation; assay type: cell-based, human; details: RA only vs RA and SAG in the first 12 days
Procedure: FIGS. 3A-3C show SHH and dual SMAD inhibition requirements for OLIG2^+ progenitors. […] Endogenous SHH levels are higher in the samples that were not exposed to SHH/SAG. Error bars are SEM (N=3). […] Negative Control: APC-conjugated secondary antibody only.
Spheres were plated on pO/L plates, as described above, in PDGF Medium at day 30, changing ⅔ of the PDGF Medium every other day until day 75 of differentiation. The appearance of O4^+ cells was assessed by live O4 staining from day 55 onwards (FIG. 6). At day 75, O4^+ OPCs could be isolated by FACS (FIG. 7I). Alternatively, for terminal oligodendrocyte differentiation (FIG. 7G-7H), cells were cultured in Glial Medium from day 75, changing ⅔ of the medium every 3 days for two weeks.
Cells were enzymatically harvested by ACCUTASE® treatment for 25 min at 37° C. to obtain a single cell suspension. Cells were then re-suspended in 100 μl of their respective medium containing the appropriate amount of either primary antibody or fluorescence-conjugated antibodies and were incubated on ice for 30 minutes shielded from light. When secondary antibodies were used, primary antibodies were washed with PBS and secondary antibodies were applied for 30 minutes on ice. […] Flow cytometry data were analyzed using BD FACSDiva™ software.

CC1=C(/C=C/C(C)=C/C=C/C(C)=C/C(=O)O)C(C)(C)CCC1 [RA, all trans retinoic acid]
OLIG2^+ progenitors generated ([1]; 100 nM RA from the beginning of induction, no exogenous SHH, OLIG2-GFP flow cytometry, day 14): 40.6%
Yield of GFP^+ cells under different RA and SHH conditions ([1]; RA 100 nM from day 0, day 14 of differentiation): highest yield

CN[C@H]1CC[C@H](N(Cc2cccc(-c3ccncc3)c2)C(=O)c2sc3ccccc3c2Cl)CC1 [SAG, 3-chloro-N-[(1r,4r)-4-(methylamino)cyclohexyl]-N-[3-(pyridin-4-yl)benzyl]benzo[b]thiophene-2-carboxamide]
OLIG2^+ progenitors yield ([1]; SAG replacing recombinant human SHH from day 8, with 100 nM RA from day 0): 70.1%
Decrease in the O4^+ population in cells not provided with SAG (O4^+ cells): 56%
